Assay results from patent US12673961B2 (Agios Pharmaceuticals, Inc., priority 2022, dated 2026).

Target: T1, human PAH with the R408W mutation (Homo sapiens, UniProt P00439, R408W)
T1 construct: expressed in transfected cells
T1 sequence (P00439 1-452 R408W): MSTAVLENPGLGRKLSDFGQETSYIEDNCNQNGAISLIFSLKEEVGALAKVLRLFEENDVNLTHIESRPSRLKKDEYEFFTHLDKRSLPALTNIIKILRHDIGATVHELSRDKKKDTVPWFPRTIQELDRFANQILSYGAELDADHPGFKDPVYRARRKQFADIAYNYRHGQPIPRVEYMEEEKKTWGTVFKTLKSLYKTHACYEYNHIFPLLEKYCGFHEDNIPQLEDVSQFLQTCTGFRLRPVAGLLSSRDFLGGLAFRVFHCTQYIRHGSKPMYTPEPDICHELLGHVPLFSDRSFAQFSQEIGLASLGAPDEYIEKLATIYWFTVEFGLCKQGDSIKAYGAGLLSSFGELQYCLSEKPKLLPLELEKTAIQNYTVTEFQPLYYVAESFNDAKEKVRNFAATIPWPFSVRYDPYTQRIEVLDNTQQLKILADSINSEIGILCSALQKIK
Assay: Cell Based Phenylalanine Flux Assay;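 also: Ten-point dose curve from 2-fold serial dilutions, run in duplicate at 0.5% DMSO final, tracer step used 20 µM sepiapterin and 800 µM labeled phenylalanine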
Settings: A375 cells expressing human R408W PAH; 24 hrs compound incubation; 13C-Tyrosine by LC-MS; average where tested multiple times; read-out: AC50
Procedure: Compounds were resuspended in DMSO, and 2-fold serial dilutions were performed to generate a 10-point dose curve. Compounds were added to plated cells in a total volume of 100 μl, and a final DMSO concentration of 0.5%. Each compound was tested in duplicate. Following compound addition, cells were placed in a 5% CO2, 37° C. tissue culture incubator for 24 hrs. […] 20 μM sepiapterin and 800 μM 13C9,15N-Phenylalanine were added. After 4 hours, cell media was removed. An aliquot of 10 μl of cell media was combined with 200 μl of extraction buffer (80% acetonitrile/20% H2O) for each well. Determination of ^13C-Tyrosine concentration was assessed by liquid chromatography mass spectrometry.
Where a compound was tested multiple times, the average value of the tests is reported.

First: O=C(CC1CC(F)C1)N1CCc2[nH]cnc2[C@@H]1c1cc2ccccn2n1 (stereo partly drawn) [Example 637, (R)-2-(3-fluorocyclobutyl)-1-(4-(pyrazolo[1,5-a]pyridin-2-yl)-6,7-dihydro-1H-imidazo [4,5-c]pyridin-5(4H)-yl)ethanone]
Second: Cn1nc(Cl)cc1C(=O)N1CCc2[nH]cnc2[C@@H]1c1cc2ccccn2n1 [Example 681, (R)-(3-chloro-1-methyl-1H-pyrazol-5-yl)(4-(pyrazolo [1,5-a]pyridin-2-yl)-6,7-dihydro-1H-imidazo[4,5-c]pyridin-5(4H)-yl)methanone]
The AC50 of the first is lower: 1 to 5 µM for the first, greater than 5 µM for the second.

`Cc1cc(F)ccc1-c1nnc(C(=O)N2CCc3[nH]cnc3[C@@H]2c2cc3ccccn3n2)o1` [Example 655, (R)-(5-(4-fluoro-2-methylphenyl)-1,3,4-oxadiazol-2-yl)(4-(pyrazolo [1,5-a]pyridin-2-yl)-6,7-dihydro-1H-imidazo[4,5-c]pyridin-5(4H)-yl)methanone] and `Cn1ccc(-c2nnc(C(=O)N3CCc4[nH]cnc4[C@H]3c3cc4ccccn4n3)o2)n1` [Example 658, (S)-(5-(1-methyl-1H-pyrazol-3-yl)-1,3,4-oxadiazol-2-yl)(4-(pyrazolo[1,5-a]pyridin-2-yl)-6,7-dihydro-1H-imidazo[4,5-c]pyridin-5(4H)-yl)methanone] fall in the same range of AC50: 1 to 5 µM for the first, 1 to 5 µM for the second.

First: N#Cc1ncoc1C(=O)N1CCc2[nH]cnc2[C@@H]1c1cc2ccc(Cl)cn2n1 [Example 685, (R)-5-(4-(6-chloropyrazolo [1,5-a]pyridin-2-yl)-4,5,6,7-tetrahydro-1H-imidazo[4,5-c]pyridine-5-carbonyl) oxazole-4-carbonitrile]
Second: CC(C)(C#N)c1nc(C(F)F)c(C(=O)N2CCc3[nH]cnc3[C@@H]2c2cc3ccccn3n2)o1 [Example 698, (R)-2-(4-(difluoromethyl)-5-(4-(pyrazolo[1,5-a]pyridin-2-yl)-4,5,6,7-tetrahydro-1H-imidazo[4,5-c]pyridine-5-carbonyl)oxazol-2-yl)-2-methylpropanenitrile]
The AC50 of the first is higher: greater than 5 µM for the first, 1 to 5 µM for the second.

First: C[C@@H](O)c1nc(C(F)F)c(C(=O)N2CCc3[nH]cnc3[C@@H]2c2cc3ccccn3n2)o1 [Example 691, (4-(difluoromethyl)-2-((R)-1-hydroxyethyl)oxazol-5-yl)((R)-4-(pyrazolo[1,5-a]pyridin-2-yl)-6,7-dihydro-1H-imidazo[4,5-c]pyridin-5(4H)-yl)methanone]
Second: C[C@@H](O)c1nc(C(F)F)c(C(=O)N2CCc3[nH]cnc3[C@@H]2c2cc3c(Cl)cccn3n2)o1 [Example 703, ((R)-4-(4-chloropyrazolo [1,5-a]pyridin-2-yl)-6,7-dihydro-1H-imidazo[4,5-c]pyridin-5(4H)-yl)(4-(difluoromethyl)-2-((R)-1-hydroxyethyl)oxazol-5-yl)methanone]
The AC50 of the first is higher: greater than 5 µM for the first, 1 to 5 µM for the second.

First: O=C(c1oc(C2(O)CC2)nc1C(F)F)N1CCc2[nH]cnc2[C@@H]1c1cc2c(Cl)cccn2n1 [Example 705, (R)-(4-(4-chloropyrazolo [1,5-a]pyridin-2-yl)-6,7-dihydro-1H-imidazo[4,5-c]pyridin-5(4H)-yl)(4-(difluoromethyl)-2-(1-hydroxycyclopropyl)oxazol-5-yl)methanone]
Second: C[C@@H](O)c1nc(C(F)F)c(C(=O)N2CCc3[nH]cnc3[C@@H]2c2cc3c(F)cccn3n2)o1 [Example 711, (4-(difluoromethyl)-2-((R)-1-hydroxyethyl)oxazol-5-yl)((R)-4-(4-fluoropyrazolo [1,5-a]pyridin-2-yl)-6,7-dihydro-1H-imidazo[4,5-c]pyridin-5(4H)-yl)methanone]
The AC50 of the first is lower: 1 to 5 µM for the first, greater than 5 µM for the second.

Going from `C[C@H](O)c1nc(C(F)F)c(C(=O)N2CCc3[nH]cnc3[C@H]2c2cc3c(F)cccn3n2)o1` [Example 712, (4-(difluoromethyl)-2-((S)-1-hydroxyethyl)oxazol-5-yl)((S)-4-(4-fluoropyrazolo [1,5-a]pyridin-2-yl)-6,7-dihydro-1H-imidazo[4,5-c]pyridin-5(4H)-yl)methanone] to `C[C@H](O)c1nc(C(F)F)c(C(=O)N2CCc3[nH]cnc3[C@@H]2c2cc3c(F)cccn3n2)o1` [Example 713, (4-(difluoromethyl)-2-((S)-1-hydroxyethyl)oxazol-5-yl)((R)-4-(4-fluoropyrazolo [1,5-a]pyridin-2-yl)-6,7-dihydro-1H-imidazo[4,5-c]pyridin-5(4H)-yl)methanone], the AC50 rises from less than 0.5 µM to greater than 5 µM.

`Cn1cc(-c2nnc(C(=O)N3CCc4[nH]cnc4[C@@H]3c3cc4c(F)cccn4n3)o2)cn1` [Example 729, (R)-(4-(4-fluoropyrazolo[1,5-a]pyridin-2-yl)-6,7-dihydro-1H-imidazo[4,5-c]pyridin-5(4H)-yl)(5-(1-methyl-1H-pyrazol-4-yl)-1,3,4-oxadiazol-2-yl)methanone] and `O=C(c1nnc(-c2cnn(C(F)F)c2)o1)N1CCc2[nH]cnc2[C@@H]1c1cc2c(F)cccn2n1` [Example 797, (R)-(5-(1-(difluoromethyl)-1H-pyrazol-4-yl)-1,3,4-oxadiazol-2-yl)(4-(4-fluoropyrazolo[1,5-a]pyridin-2-yl)-6,7-dihydro-1H-imidazo[4,5-c]pyridin-5(4H)-yl)methanone] cannot be ordered by AC50: greater than 5 µM for the first, greater than 5 µM for the second.

Compared with `Cn1ccc(-c2nnc(C(=O)N3CCc4[nH]cnc4[C@H]3c3cc4c(F)cccn4n3)o2)n1` [Example 730, (S)-(4-(4-fluoropyrazolo [1,5-a]pyridin-2-yl)-6,7-dihydro-1H-imidazo[4,5-c]pyridin-5(4H)-yl)(5-(1-methyl-1H-pyrazol-3-yl)-1,3,4-oxadiazol-2-yl)methanone], `Cc1cccn2nc([C@H]3c4nc[nH]c4CCN3C(=O)c3nnc(-c4ccn(C)n4)o3)cc12` [Example 742, (R)-(5-(1-methyl-1H-pyrazol-3-yl)-1,3,4-oxadiazol-2-yl)(4-(4-methylpyrazolo[1,5-a]pyridin-2-yl)-6,7-dihydro-1H-imidazo [4,5-c]pyridin-5(4H)-yl)methanone] is higher in AC50: less than 0.5 µM for the first, greater than 5 µM for the second.

`O=C(c1nnc(-c2ccccn2)o1)N1CCc2[nH]cnc2[C@@H]1c1cc2c(F)cccn2n1` [Example 732, (R)-(4-(4-fluoropyrazolo [1,5-a]pyridin-2-yl)-6,7-dihydro-1H-imidazo[4,5-c]pyridin-5(4H)-yl)(5-(pyridin-2-yl)-1,3,4-oxadiazol-2-yl)methanone] and `COc1cccn2nc([C@H]3c4nc[nH]c4CCN3C(=O)c3nnc(-c4ccccn4)o3)cc12` [Example 778, (R)-(4-(4-methoxypyrazolo [1,5-a]pyridin-2-yl)-6,7-dihydro-1H-imidazo[4,5-c]pyridin-5(4H)-yl)(5-(pyridin-2-yl)-1,3,4-oxadiazol-2-yl)methanone] cannot be ordered by AC50: greater than 5 µM for the first, greater than 5 µM for the second.

First: CC(C)(O)c1nc(C(F)(F)F)c(C(=O)N2CCc3[nH]cnc3[C@H]2c2cc3c(F)cccn3n2)o1 [Example 744, (S)-(4-(4-fluoropyrazolo[1,5-a]pyridin-2-yl)-6,7-dihydro-1H-imidazo[4,5-c]pyridin-5(4H)-yl)(2-(2-hydroxypropan-2-yl)-4-(trifluoromethyl)oxazol-5-yl)methanone]
Second: Cc1nc(C(C)(C)O)oc1C(=O)N1CCc2[nH]cnc2[C@@H]1c1cc2c(C)cccn2n1 [Example 755, (R)-(2-(2-hydroxypropan-2-yl)-4-methyloxazol-5-yl)(4-(4-methylpyrazolo[1,5-a]pyridin-2-yl)-6,7-dihydro-1H-imidazo[4,5-c]pyridin-5(4H)-yl)methanone]
The AC50 of the first is lower: less than 0.5 µM for the first, greater than 5 µM for the second.

`Cc1nc([C@H](C)O)oc1C(=O)N1CCc2[nH]cnc2[C@@H]1c1cc2c(C)cccn2n1` [Example 751, (2-((S)-1-hydroxyethyl)-4-methyloxazol-5-yl)((R)-4-(4-methylpyrazolo[1,5-a]pyridin-2-yl)-6,7-dihydro-1H-imidazo [4,5-c]pyridin-5(4H)-yl) methanone] and `Cc1cccn2nc([C@H]3c4nc[nH]c4CCN3C(=O)c3cnco3)cc12` [Example 769, (R)-(4-(4-methylpyrazolo [1,5-a]pyridin-2-yl)-6,7-dihydro-1H-imidazo[4,5-c]pyridin-5(4H)-yl)(oxazol-5-yl)methanone] cannot be ordered by AC50: greater than 5 µM for the first, greater than 5 µM for the second.

First: O=C(c1ccnn1C(F)F)N1CCc2[nH]cnc2[C@@H]1c1cc2c(Cl)cccn2n1 [Example 783, (R)-(4-(4-chloropyrazolo [1,5-a]pyridin-2-yl)-6,7-dihydro-1H-imidazo [4,5-c]pyridin-5(4H)-yl)(1-(difluoromethyl)-1H-pyrazol-5-yl)methanone]
Second: O=C(c1nnc(-c2ncccc2F)o1)N1CCc2[nH]cnc2[C@H]1c1cc2c(F)cccn2n1 [Example 791, (S)-(4-(4-fluoropyrazolo[1,5-a]pyridin-2-yl)-6,7-dihydro-1H-imidazo[4,5-c]pyridin-5(4H)-yl)(5-(3-fluoropyridin-2-yl)-1,3,4-oxadiazol-2-yl) methanone]
The AC50 of the first is higher: 1 to 5 µM for the first, less than 0.5 µM for the second.

First: Cc1c([C@H]2c3nc[nH]c3CCN2C(=O)c2oc(C(C)(C)O)nc2C(F)F)nn2ccccc12 [Example 787, (R)-(4-(difluoromethyl)-2-(2-hydroxypropan-2-yl)oxazol-5-yl)(4-(3-methylpyrazolo[1,5-a]pyridin-2-yl)-6,7-dihydro-1H-imidazo [4,5-c]pyridin-5(4H)-yl)methanone]
Second: COc1ccc(-c2nnc(C(=O)N3CCc4[nH]cnc4[C@H]3c3cc4c(F)cccn4n3)o2)nc1 [Example 788, (S)-(4-(4-fluoropyrazolo[1,5-a]pyridin-2-yl)-6,7-dihydro-1H-imidazo[4,5-c]pyridin-5(4H)-yl)(5-(5-methoxypyridin-2-yl)-1,3,4-oxadiazol-2-yl)methanone]
The AC50 of the first is higher: 1 to 5 µM for the first, less than 0.5 µM for the second.
